Results on 24 compounds are retold here after patent US10934276B2, “Positive allosteric modulators of the muscarinic acetylcholine receptor M4” (Vanderbilt University, priority 2016, dated 2021).

In general, Emax refers to the size of the effect at its maximum, as opposed to the concentration needed. As a reminder, the EC50 is the concentration giving half of the maximal effect.

The target in this assay is T1, Human M4 (Homo sapiens, UniProt P08173).
T1 construct: expressed in transfected cells; host or cells: CHO-K1 (ATCC), stably expressing hM4 and Gqi5
T1 sequence (P08173 1-479): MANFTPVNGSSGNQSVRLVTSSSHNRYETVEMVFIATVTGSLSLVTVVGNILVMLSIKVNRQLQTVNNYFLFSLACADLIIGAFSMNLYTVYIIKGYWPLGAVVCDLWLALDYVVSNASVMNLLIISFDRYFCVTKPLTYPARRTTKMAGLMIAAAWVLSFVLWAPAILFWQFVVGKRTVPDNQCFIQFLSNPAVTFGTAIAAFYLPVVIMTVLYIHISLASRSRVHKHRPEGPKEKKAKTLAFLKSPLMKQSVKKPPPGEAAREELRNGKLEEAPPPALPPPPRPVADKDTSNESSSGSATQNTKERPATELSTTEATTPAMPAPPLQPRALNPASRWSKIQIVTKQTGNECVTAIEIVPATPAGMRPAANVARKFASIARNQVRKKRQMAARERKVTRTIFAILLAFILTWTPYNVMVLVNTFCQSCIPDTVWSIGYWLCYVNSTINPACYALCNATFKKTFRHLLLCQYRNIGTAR
Put plainly: mAChR M4 cell-based functional assay (calcium flux, potentiation of EC20 acetylcholine response in CHO-K1 hM4-Gqi5 cells). To be noted: for Emax at 30 µM: CHO-K1, % ACh maximum at 30 μM, human M4; for EC50: positive allosteric modulator mode, EC20 acetylcholine, CHO-K1 cells with human M4 and Gqi5. The protocol: Human M4 cDNA, along with the chimeric G protein Gqi5, were transfected into Chinese hamster ovary (CHO—K1) cells purchased from the American Type Culture Collection using Lipofectamine2000. hM4-Gqi5 cells were grown in Ham's F-12 medium containing 10% heat-inactivated fetal bovine serum (FBS), 20 mM HEPES, 50 μg/mL G418 sulfate, and 500 μg/mL Hygromycin B. rM4-Gqi5 cells were grown in DMEM containing 10% heat-inactivated FBS, 20 mM HEPES, 400 μg/mL G418 sulfate, and 500 μg/mL Hygromycin B.
For high throughput measurement of agonist-evoked increases in intracellular calcium, CHO—K1 cells stably expressing muscarinic receptors were plated in growth medium lacking G418 and hygromycin at 15,000 cells/20 μL/well in Greiner 384-well black-walled, tissue culture (TC)-treated, clear-bottom plates (VWR). Cells were incubated overnight at 37° C. and 5% CO2. The next day, cells were washed using an ELX 405 (BioTek) with assay buffer; the final volume was then aspirated to 20 μL. Next, 20 μL of a 2.3 μM stock of Fluo-4/acetoxymethyl ester (Invitrogen, Carlsbad, Calif.), prepared as a 2.3 mM stock in DMSO and mixed in a 1:1 ratio with 10% (w/v) Pluronic F-127 and diluted in assay buffer, was added to the wells and the cell plates were incubated for 50 min at 37° C. and 5% CO2. Dye was removed by washing with the ELX 405 and the final volume was aspirated to 20 μL. Compound master plates were formatted in an 11 point concentration-response curve (CRC) format (1:3 dilutions) in 100% DMSO with a starting concentration of 10 mM using a BRAVO liquid handler (Agilent). Test compound CRCs were then transferred to daughter plates (240 nL) using the Echo acoustic plate reformatter (Labcyte, Sunnyvale, Calif.) and then diluted into assay buffer (40 μL) to a 2× stock using a Thermo Fisher Combi (Thermo Fisher Scientific, Waltham, Mass.).
Calcium flux was measured using the Functional Drug Screening System (FDSS) 6000 or 7000 (Hamamatsu Corporation, Tokyo, Japan) as an increase in the fluorescent static ratio. Compounds were applied to cells (20 μL, 2×) using the automated system of the FDSS at 2-4 seconds into the protocol and the data were collected at 1 Hz. At 144 seconds, 10 μL of an EC20 concentration of the muscarinic receptor agonist acetylcholine was added (5×), followed by the addition of 12 μL of an EC80 concentration of acetylcholine at the 230 second time point (5×). Agonist activity was analyzed as a concentration-dependent increase in calcium mobilization upon compound addition. Positive allosteric modulator activity was analyzed as a concentration-dependent increase in the EC20 acetylcholine response. With the acetylcholine EC20 set as baseline, the test compound EC50 is determined as the concentration that produces an increase above baseline of 50% of the maximum increase in acetylcholine response elicted by the test compound. Antagonist activity was analyzed as a concentration-dependent decrease in the EC80 acetylcholine response. Concentration-response curves were generated using a four-parameter logistical equation in XLFit curve fitting software (IDBS, Bridgewater, N.J.) for Excel (Microsoft, Redmond, Wash.) or Prism (GraphPad Software, Inc., San Diego, Calif.).
Compounds were synthesized as described above. Activity (EC50 and Emax) was determined in the mAChR M4 cell-based functional assay as described above and the data are shown in Table 3. The compound numbers correspond to the compound numbers used in Examples 2-4 and Tables 1 and 2.
(In general: A change in cytosolic calcium serves as a functional read-out for many receptors and channels.)

For the compound `Cc1nnc2ccc(C(=O)NC3CN(c4ccc(F)c(F)c4)C3)cc2c1C` [Compound 18, N-[1-(3,4-difluorophenyl)azetidin-3-yl]-3,4-dimethyl-cinnoline-6-carboxamide], the Emax at 30 µM was 81.7% and the EC50 is 740 nM.

On to `Cc1cc(C)c2cc(C(=O)NCc3ccncc3)ccc2n1` [Compound 6, 2,4-dimethyl-N-(4-pyridylmethyl)quinoline-6-carboxamide], for which the maximal response (Emax) at 30 µM came out at 26.4% and the EC50 is over 10000 nM.

Turning to `Cc1cc(C)c2cc(C(=O)NC3CN(c4nccc(Br)c4Cl)C3)ccc2n1` [Compound 11, N-[1-(4-bromo-3-chloro-2-pyridyl)azetidin-3-yl]-2,4-dimethyl-quinoline-6-carboxamide], the Emax at 30 µM was 27.5% and the EC50 came out at 2200 nM.

As for `Cc1cc(C)c2cc(C(=O)NC3CN(c4cc(Cl)nc(Cl)c4)C3)ccc2n1` [Compound 9, N-[1-(2,6-dichloro-4-pyridyl)azetidin-3-yl]-2,4-dimethyl-quinoline-6-carboxamide], the Emax at 30 µM is 26.1% and the EC50 came out at 370 nM.

As for `Cc1nnc2ccc(C(=O)NC3CN(c4ccc(F)cn4)C3)cc2c1C` [Compound 24, N-[1-(5-fluoro-2-pyridyl)azetidin-3-yl]-3,4-dimethyl-cinnoline-6-carboxamide], the maximal response (Emax) at 30 µM was determined as 79.2% and the EC50 was over 10000 nM.

Regarding `Cc1nnc2ccc(C(=O)NC3CN(c4cccc(F)n4)C3)cc2c1C` [Compound 33, N-[1-(6-fluoro-2-pyridyl)azetidin-3-yl]-3,4-dimethyl-cinnoline-6-carboxamide], the Emax at 30 µM came out at 84.5% and the EC50 was found to be 670 nM.

`Cc1cc(C)c2cc(C(=O)NC3CN(c4ccnc(F)c4F)C3)ccc2n1` [Compound 12, N-[1-(2,3-difluoro-4-pyridyl)azetidin-3-yl]-2,4-dimethyl-quinoline-6-carboxamide]: the Emax at 30 µM was 65.4% and the EC50 worked out at 170 nM.

For the compound `COc1ccc(CNC(=O)c2ccc3nc(C)cc(C)c3c2)cc1F` [Compound 1, N-[(3-fluoro-4-methoxy-phenyl)methyl]-2,4-dimethyl-quinoline-6-carboxamide], the maximum response (Emax) at 30 µM came to 53.1% and the EC50 is over 10000 nM.

In the case of `Cc1cc(C)c2cc(C(=O)NC3CN(c4ccnc(OC(F)F)c4)C3)ccc2n1` [Compound 10, N-[1-[2-(difluoromethoxy)-4-pyridyl]azetidin-3-yl]-2,4-dimethyl-quinoline-6-carboxamide], the Emax at 30 µM worked out at 55.5% and the EC50 came to 1400 nM.

For `Cc1cc(C)c2cc(C(=O)NC3CN(c4ncc(OC(C)C)cn4)C3)ccc2n1` [Compound 4, N-[1-(5-isopropoxypyrimidin-2-yl)azetidin-3-yl]-2,4-dimethyl-quinoline-6-carboxamide], the Emax at 30 µM was found to be 49.3% and the EC50 came to 5300 nM.

Take `Cc1nnc2ccc(C(=O)NC3CC3)cc2c1C` [Compound 39, N-cyclopropyl-3,4-dimethyl-cinnoline-6-carboxamide]: the Emax at 30 µM stood at 82.6% and the concentration giving a half-maximal response (EC50) was over 10000 nM.

For `Cc1nnc2ccc(C(=O)NC3CN(c4ncc(C(F)(F)F)cn4)C3)cc2c1C` [Compound 17, 3,4-dimethyl-N-[1-[5-(trifluoromethyl)pyrimidin-2-yl]azetidin-3-yl]cinnoline-6-carboxamide], the maximal response (Emax) at 30 µM turned out to be 76.7% and the EC50 was over 10000 nM.

In the case of `Cc1nnc2ccc(C(=O)NC3CN(c4ncccc4F)C3)cc2c1C` [Compound 34, N-[1-(3-fluoro-2-pyridyl)azetidin-3-yl]-3,4-dimethyl-cinnoline-6-carboxamide], the Emax at 30 µM turned out to be 83.4% and the EC50 was 1220 nM.

Regarding `Cc1nnc2ccc(C(=O)NC3CN(c4ccc(Cl)cn4)C3)cc2c1C` [Compound 23, N-[1-(5-chloro-2-pyridyl)azetidin-3-yl]-3,4-dimethyl-cinnoline-6-carboxamide], the maximum response (Emax) at 30 µM is 73.4% and the 50% effective concentration (EC50) came to 1270 nM.

Consider `Cc1nnc2ccc(C(=O)NC3CN(c4ncc(C(F)(F)F)cc4Cl)C3)cc2c1C` [Compound 28, N-[1-[3-chloro-5-(trifluoromethyl)-2-pyridyl]azetidin-3-yl]-3,4-dimethyl-cinnoline-6-carboxamide], for which the Emax at 30 µM came out at 75.7% and the EC50 came to 2630 nM.

As for `Cc1cc(C)c2cc(C(=O)NC3CN(c4cc(Cl)ncc4Cl)C3)ccc2n1` [Compound 5, N-[1-(2,5-dichloro-4-pyridyl)azetidin-3-yl]-2,4-dimethyl-quinoline-6-carboxamide], the Emax at 30 µM worked out at 52.5% and the concentration giving a half-maximal response (EC50) was found to be 190 nM.

Regarding `Cc1cc(C)c2cc(C(=O)NC3CN(c4nccc(Br)c4F)C3)ccc2n1` [Compound 13, N-[1-(4-bromo-3-fluoro-2-pyridyl)azetidin-3-yl]-2,4-dimethyl-quinoline-6-carboxamide], the Emax at 30 µM is 59.5% and the EC50 came to 1600 nM.

`Cc1nnc2ccc(C(=O)NC3CN(c4cc(Cl)ncc4Cl)C3)cc2c1C` [Compound 30, N-[1-(2,5-dichloro-4-pyridyl)azetidin-3-yl]-3,4-dimethyl-cinnoline-6-carboxamide]: the Emax at 30 µM amounted to 91.6% and the EC50 was 120 nM.

Consider `Cc1nnc2ccc(C(=O)NC3CN(c4cnc(C5CC5)cn4)C3)cc2c1C` [Compound 22, N-[1-(5-cyclopropylpyrazin-2-yl)azetidin-3-yl]-3,4-dimethyl-cinnoline-6-carboxamide], for which the Emax at 30 µM is 79.9% and the EC50 came to 2510 nM.

For `Cc1nnc2ccc(C(=O)NC3CN(c4ccc(OC(F)F)nc4)C3)cc2c1C` [Compound 31, N-[1-[6-(difluoromethoxy)-3-pyridyl]azetidin-3-yl]-3,4-dimethyl-cinnoline-6-carboxamide], the Emax at 30 µM came out at 80.8% and the concentration giving a half-maximal response (EC50) was 1460 nM.

Regarding `Cc1nnc2ccc(C(=O)NC3CN(c4ccnc(C(F)(F)F)c4)C3)cc2c1C` [Compound 37, 3,4-dimethyl-N-[1-[2-(trifluoromethyl)-4-pyridyl]azetidin-3-yl]cinnoline-6-carboxamide], the maximal response (Emax) at 30 µM was determined as 88% and the EC50 amounted to 750 nM.

Take `COc1ccc(CNC(=O)c2ccc3nnc(C)c(C)c3c2)cc1F` [Compound 15, N-[(3-fluoro-4-methoxy-phenyl)methyl]-3,4-dimethyl-cinnoline-6-carboxamide]: the Emax at 30 µM was determined as 72.3% and the concentration giving a half-maximal response (EC50) turned out to be 1890 nM.

For the compound `Cc1nnc2ccc(C(=O)NC3CN(c4ncc(C5CC5)cc4Cl)C3)cc2c1C` [Compound 27, N-[1-(3-chloro-5-cyclopropyl-2-pyridyl)azetidin-3-yl]-3,4-dimethyl-cinnoline-6-carboxamide], the maximal response (Emax) at 30 µM came to 77.2% and the EC50 turned out to be 1390 nM.

In the case of `Cc1nnc2ccc(C(=O)NC3CN(c4ncc(OC(C)C)cn4)C3)cc2c1C` [Compound 20, N-[1-(5-isopropoxypyrimidin-2-yl)azetidin-3-yl]-3,4-dimethyl-cinnoline-6-carboxamide], the Emax at 30 µM was 87.8% and the EC50 was determined as 3200 nM.
